Assay results taken from the supplement of paper PMC8671470.

What was measured:
Experiment in all cases: cell viability (% survival relative to DMSO control); higher = less cytotoxic
Conditions in all cases: 72 h
HL-60 = tested on: HL-60
Experimental: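 8x8 drug-combination matrices (0-5000 nM; rosiglitazone and lestaurtinib 0-1000 nM) were run in HL-60 cells for 72 h with a CellTiter-Glo read-out. Survival is normalised to DMSO and 10 µM bortezomib and clipped at 100%. Bliss synergy was analysed in SynergyFinder.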

Mono-Mac-6 = tested on: Mono-Mac-6
Experimental: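 8x8 drug-combination matrices (0–5000 nM; rosiglitazone and lestaurtinib 0–1000 nM) were run in Mono-Mac-6 cells for 72 h with CellTiter-Glo read-out. Survival is normalised to DMSO and 10 µM bortezomib and clipped at 100%.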

MV4-11 = tested on: MV4-11
Experimental: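 8x8 drug-combination matrices (0–5000 nM; rosiglitazone and lestaurtinib 0–1000 nM) were run in MV4-11 cells for 72 h with CellTiter-Glo read-out. Survival is normalised to DMSO and 10 µM bortezomib and clipped at 100%.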

O=C(C1CC1)N1CC[C@@H](C=C2NNC(=O)N2c2ccc(-c3ccc4occc4c3)cc2)C1 + C[C@H](NC(=O)c1sccc1OCc1ccc(Cl)cc1)c1ccccc1 [as1949490]
cell viability [%]
Conditions	drug1 concentration 5 nM	drug1 concentration 10 nM	drug1 concentration 50 nM	drug1 concentration 100 nM	drug1 concentration 500 nM	drug1 concentration 1000 nM	drug1 concentration 5000 nM
HL-60, drug2 concentration 5 nM	81.9	89	82.7	68	60.7	60.8	51.6
HL-60, drug2 concentration 10 nM	> 100	86.7	79.5	65	58.1	58.4	48.5
HL-60, drug2 concentration 50 nM	99.3	83.4	74.8	57.3	59.3	51.9	42.1
HL-60, drug2 concentration 100 nM	95.7	83.4	68.3	53.2	56.1	48.8	37.7
HL-60, drug2 concentration 500 nM	88.6	78.1	63.5	56	46.3	49.6	38.5
HL-60, drug2 concentration 1000 nM	86.2	76.1	60.1	46.8	43.6	44.1	35.8
HL-60, drug2 concentration 5000 nM	80.8	72.6	57.6	43.4	44.8	40.9	33.3
MV4-11, drug2 concentration 5 nM	> 100	> 100	> 100	83.1	> 100	96.5	> 100
MV4-11, drug2 concentration 10 nM	> 100	> 100	> 100	> 100	> 100	> 100	> 100
MV4-11, drug2 concentration 50 nM	> 100	99	> 100	> 100	> 100	> 100	> 100
MV4-11, drug2 concentration 100 nM	> 100	80.4	> 100	92.8	92.2	> 100	98.4
MV4-11, drug2 concentration 500 nM	> 100	96.5	> 100	> 100	> 100	93.8	> 100
MV4-11, drug2 concentration 1000 nM	> 100	> 100	98	89.7	86.3	> 100	61.8
MV4-11, drug2 concentration 5000 nM	77.3	85.6	71.7	79.5	62	58.4	72
Mono-Mac-6, drug2 concentration 5 nM	77.9	> 100	94.8	82.5	> 100	88.6	91.3
Mono-Mac-6, drug2 concentration 10 nM	> 100	> 100	> 100	84.4	> 100	98.4	> 100
Mono-Mac-6, drug2 concentration 50 nM	> 100	> 100	> 100	> 100	88.9	91.8	> 100
Mono-Mac-6, drug2 concentration 100 nM	90	96.4	> 100	94.7	77.3	> 100	69.7
Mono-Mac-6, drug2 concentration 500 nM	90.5	78	74.2	> 100	> 100	> 100	80.7
Mono-Mac-6, drug2 concentration 1000 nM	95	> 100	97.3	> 100	77.3	91.1	75.6
Mono-Mac-6, drug2 concentration 5000 nM	79	73.5	> 100	96.3	73.3	91.3	54.6

CC(C)c1onc(-c2c(Cl)cccc2Cl)c1COc1ccc(/C=C/c2cccc(C(=O)O)c2)c(Cl)c1 [GW4064] + Cn1cc(-c2ccncc2)c(-c2ccc(OCc3ccc4ccccc4n3)cc2)n1 [PF-02545920]
cell viability [%]
Conditions	drug1 concentration 5 nM	drug1 concentration 10 nM	drug1 concentration 50 nM	drug1 concentration 100 nM	drug1 concentration 500 nM	drug1 concentration 1000 nM	drug1 concentration 5000 nM
HL-60, drug2 concentration 5 nM	> 100	98.6	> 100	> 100	> 100	> 100	78.8
HL-60, drug2 concentration 10 nM	> 100	> 100	> 100	> 100	97	> 100	89.8
HL-60, drug2 concentration 50 nM	> 100	> 100	> 100	> 100	> 100	68.7	> 100
HL-60, drug2 concentration 100 nM	81.7	> 100	88.4	76.3	> 100	> 100	53.4
HL-60, drug2 concentration 500 nM	> 100	65.9	> 100	> 100	> 100	> 100	> 100
HL-60, drug2 concentration 1000 nM	97.1	> 100	> 100	> 100	> 100	46.6	> 100
HL-60, drug2 concentration 5000 nM	> 100	> 100	> 100	> 100	> 100	89.8	> 100
MV4-11, drug2 concentration 5 nM	90.6	> 100	> 100	95.2	> 100	90.8	90.2
MV4-11, drug2 concentration 10 nM	> 100	> 100	91	99.5	94.5	> 100	95.5
MV4-11, drug2 concentration 50 nM	> 100	> 100	> 100	> 100	> 100	53.1	96.7
MV4-11, drug2 concentration 100 nM	97.4	> 100	> 100	96.7	> 100	> 100	89.1
MV4-11, drug2 concentration 500 nM	> 100	96.2	> 100	> 100	70.1	> 100	77.9
MV4-11, drug2 concentration 1000 nM	> 100	> 100	97.2	91.1	95.5	80.8	73.6
MV4-11, drug2 concentration 5000 nM	48.9	54	49.3	53.3	54.9	50.4	46.4
Mono-Mac-6, drug2 concentration 5 nM	> 100	> 100	> 100	85.7	80.4	88.9	> 100
Mono-Mac-6, drug2 concentration 10 nM	92.5	> 100	79.3	78.5	87.6	94.3	99.8
Mono-Mac-6, drug2 concentration 50 nM	> 100	> 100	> 100	86	97.2	66.9	99.9
Mono-Mac-6, drug2 concentration 100 nM	> 100	90.5	> 100	86.8	> 100	> 100	82.2
Mono-Mac-6, drug2 concentration 500 nM	81.2	69.3	> 100	> 100	94.8	87.9	> 100
Mono-Mac-6, drug2 concentration 1000 nM	93.3	> 100	77.2	98.6	96.1	89.8	81.4
Mono-Mac-6, drug2 concentration 5000 nM	74.5	91.6	65	76.7	96.5	85.1	87.7

O=C(C1CC1)N1CC[C@@H](C=C2NNC(=O)N2c2ccc(-c3ccc4occc4c3)cc2)C1 + O=C(c1c2ccccc2cc2ccccc12)N1CCC(N2CCC[C@@H](C(=O)N3CCOCC3)C2)CC1 [CP-640186]
cell viability [%]
Conditions	drug1 concentration 5 nM	drug1 concentration 10 nM	drug1 concentration 50 nM	drug1 concentration 100 nM	drug1 concentration 500 nM	drug1 concentration 1000 nM	drug1 concentration 5000 nM
HL-60, drug2 concentration 5 nM	79.6	> 100	88.2	88.2	60	71.7	88.2
HL-60, drug2 concentration 10 nM	96.6	97.7	86.2	86.2	91.2	72	64.5
HL-60, drug2 concentration 50 nM	90	95.2	82.5	88	81.8	68.2	74.1
HL-60, drug2 concentration 100 nM	88	90	78.2	90.5	74.4	63.6	72.3
HL-60, drug2 concentration 500 nM	86.2	88.5	75.1	91.1	70.5	57.8	71.1
HL-60, drug2 concentration 1000 nM	84	84.2	70.3	75.1	61.5	56.3	79.2
HL-60, drug2 concentration 5000 nM	77.2	79.4	72	74.6	52.4	53.7	66.5
MV4-11, drug2 concentration 5 nM	95.4	96.1	93.4	98.1	97.2	100	> 100
MV4-11, drug2 concentration 10 nM	89.8	> 100	> 100	> 100	> 100	> 100	88.2
MV4-11, drug2 concentration 50 nM	> 100	98.5	> 100	> 100	83.6	> 100	> 100
MV4-11, drug2 concentration 100 nM	98.3	> 100	> 100	> 100	> 100	> 100	> 100
MV4-11, drug2 concentration 500 nM	> 100	91	88.9	90.1	> 100	> 100	97.5
MV4-11, drug2 concentration 1000 nM	> 100	97.9	98.6	> 100	> 100	> 100	> 100
MV4-11, drug2 concentration 5000 nM	98.1	86	96.1	> 100	91.9	86.4	92.3
Mono-Mac-6, drug2 concentration 5 nM	77.8	> 100	88.2	84.8	85.5	88.8	> 100
Mono-Mac-6, drug2 concentration 10 nM	> 100	> 100	> 100	90.7	81.2	> 100	63.7
Mono-Mac-6, drug2 concentration 50 nM	99.3	89.7	> 100	> 100	> 100	> 100	> 100
Mono-Mac-6, drug2 concentration 100 nM	87.7	> 100	> 100	99.8	> 100	91.2	87.4
Mono-Mac-6, drug2 concentration 500 nM	95.2	87	87.4	86.2	> 100	> 100	79.5
Mono-Mac-6, drug2 concentration 1000 nM	88.8	> 100	> 100	84.9	> 100	98.8	99.4
Mono-Mac-6, drug2 concentration 5000 nM	> 100	70.2	98.1	99.4	81.6	72.4	> 100

O=C(C1CC1)N1CC[C@@H](C=C2NNC(=O)N2c2ccc(-c3ccc4occc4c3)cc2)C1 + CS(=O)(=O)N1CCN(Cc2cc3nc(-c4cccc5[nH]ncc45)nc(N4CCOCC4)c3s2)CC1 [Pictilisib]
cell viability [%]
Conditions	drug1 concentration 5 nM	drug1 concentration 10 nM	drug1 concentration 50 nM	drug1 concentration 100 nM	drug1 concentration 500 nM	drug1 concentration 1000 nM	drug1 concentration 5000 nM
HL-60, drug2 concentration 5 nM	93	71.7	66.5	59.9	51.3	56.3	51.5
HL-60, drug2 concentration 10 nM	70	68.5	58.9	60.9	56.7	55.8	52.9
HL-60, drug2 concentration 50 nM	59.4	61.7	54.4	53.3	52.8	53.1	51
HL-60, drug2 concentration 100 nM	60.3	58.5	51.3	51.5	45.6	51.7	52.2
HL-60, drug2 concentration 500 nM	46.9	49	44.4	45.7	34.5	47.1	45
HL-60, drug2 concentration 1000 nM	46.7	50.8	41.3	44.2	48.4	49.9	39.1
HL-60, drug2 concentration 5000 nM	38.6	42.6	40.3	33.2	38.6	43.5	36.2
MV4-11, drug2 concentration 5 nM	> 100	91.3	> 100	89.5	> 100	76.8	> 100
MV4-11, drug2 concentration 10 nM	> 100	89.1	> 100	91.9	72	94.3	> 100
MV4-11, drug2 concentration 50 nM	> 100	99.9	94.2	92	93.5	> 100	56.5
MV4-11, drug2 concentration 100 nM	89.5	96.8	99.6	> 100	> 100	94.6	> 100
MV4-11, drug2 concentration 500 nM	> 100	95.5	> 100	94	94.4	94.2	80.3
MV4-11, drug2 concentration 1000 nM	91.9	71.7	87.8	80.5	87.1	> 100	74.8
MV4-11, drug2 concentration 5000 nM	76.5	49.4	58.1	68.8	69.9	44.4	55.6
Mono-Mac-6, drug2 concentration 5 nM	> 100	94.2	88.6	86.5	92.2	81.2	88.3
Mono-Mac-6, drug2 concentration 10 nM	89.9	> 100	85.6	81	78.2	81.2	93.1
Mono-Mac-6, drug2 concentration 50 nM	80.5	> 100	81.7	69.7	74.8	99	68.1
Mono-Mac-6, drug2 concentration 100 nM	63	75.5	91.8	75.3	> 100	94.4	84.6
Mono-Mac-6, drug2 concentration 500 nM	70	83.9	> 100	87.7	73	86.2	81.4
Mono-Mac-6, drug2 concentration 1000 nM	53.7	71	52.4	87.1	71.3	77.1	69.4
Mono-Mac-6, drug2 concentration 5000 nM	51.6	27.5	37.5	48.3	49.9	24.2	49.3
